Key:
Format in all cases: cell-based
[1] = XTT assay, SupT1 24STNLESG cells; conditions: human
Description: Additional file 1: Figure S1. 791 and 833 Suppress HIV-1 Gene Expression in SupT1 24NESLG Cell Line. a Schematic of HIV-1 provirus used to generated the stably transduced SupT1 cell line. b Effect of 791 and 833 on Gag expression in SupT1 NLESG cells. Cells were treated with indicated concentrations of 791/833 then HIV-1 expression induced by PMA addition. Media harvested after 24 h was subsequently assayed using Gag (p24) ELISA. Cell viability was measured by an XTT assay. 892 was not active in this cell line at the concentrations tested Additional file 2: Figure S7. Effect of compounds on CEM-GXR cell viability. Evaluation of 791, 833, and 892 on CEM-GXR cell viability in the Guava ViaCount assay. Cells were analyzed after 24 h incubation with the compounds at the indicated concentrations ranging between 0–47 μM (791), 0–5 μM (833), or 0–62.5 μM (892). Results are expressed as the percentage (%) of viable cells relative to DMSO treatment ±SEM of two independent experiments performed in triplicate. […] Images are cropped to show a representative field of view. b The dose range of the compounds which inhibit HIV-1 GagGFP expression in HeLa rtTA HIVGagGFP C7 cells was measured by mean fluorescence intensity and expressed relative to fluorescence intensity in DMSO-treated samples (N ≥ 3, *p ≤ 0.05, **p ≤ 0.01, and ***p ≤ 0.001). […]

HeLa rtTA HIV∆Mls cells = test: XTT cell metabolism/viability assay, HeLa; conditions: for cell viability at dose required to reduce Gag expression by >80%: XTT and Trypan blue exclusion, 791 20 µM, 833 10 µM
Description: Effects of compound treatment on cellular metabolism was assessed by an XTT-based in vitro toxicology assay kit (Sigma-Aldrich) or Trypan blue exclusion (Life Technologies) as proxy for degree of cytotoxicity and expressed relative to DMSO control treatment. For measurement of cell viability using XTT, culture media was removed after 24, 72, and 96 h of compound treatment, replaced with 20% XTT solution and incubated at 37 °C in a 5% CO2 humidified incubator for 2–6 h, and relative cell viability was measured in compound treated cells relative to DMSO-treated cells. Cell viability measurements in CEM-GXR cells are described above.

[2] = tested on: total protein synthesis in HeLa HIVrtTA∆Mls cells; test: SUnSET total protein synthesis; conditions: doses that significantly reduced HIV-1 protein expression, ∓Dox
Description: The effect of the compounds on nascent protein synthesis was measured by surface sensing of translation (SUnSET) as described by Schmidt et al.. Cells were incubated with puromycin, an aminoacyl tRNA analog, to allow puromycin incorporation into newly translated peptides and prevention of further ribosomal elongation by chain termination. To assess the effect of the compounds on protein translation, cells were prepared and treated as described above, but were incubated with 10 μg/mL of puromycin for a period of 30 min prior to harvesting cell lysates for protein analysis. Protein concentration of cell lysates was quantified by Bradford assay and equal amounts of protein (30–35 μg) was run on either 10% or 4–15% (gradient) gels. Following transfer to PVDF (BioRad), blots were probed with mouse monoclonal antibody to puromycin (anti-12D10, EMD Millipore). Blots were developed using ECL Plus (Perkin-Elmer) or Clarity (BioRad) and imaged using the ChemiDoc MP Imager (BioRad). To quantify the levels of protein synthesis, the volume intensity in each lane of compound-treated sample was calculated relative to the DMSO-treated sample and normalized to GAPDH loading control using ImageLab software (BioRad) from at least four independent experiments.

Compound | CC50 at 24 h [1] [µM] | toxicity on extended culture (cell proliferation by XTT) (HeLa rtTA HIV∆Mls cells; 1, 3 and 4 days post-treatment, in comparison to 833 and 892 (Figure S5)) | cell viability at dose required to reduce Gag expression by >80% (HeLa rtTA HIV∆Mls cells) | reduction in protein synthesis relative to DMSO [2] | mitochondrial function by XTT (HeLa rtTA HIV∆Mls cells; up to 10 µM)
Cc1cc(NCc2cccnc2)n2ncc(-c3ccc(Cl)cc3)c2n1 [Compound 791, 3-(4-chlorophenyl)-5-methyl-N-(3-pyridinylmethyl)pyrazolo[1,5-a]pyrimidin-7-amine] | > 60 | reduced toxicity | not affected | little or no effect | –
O=C(NC(=S)NNC(=O)c1ccccc1O)c1ccc(-c2ccccc2)cc1 [Compound 833, N-([2-(2-hydroxybenzoyl)hydrazino]carbonothioyl}-4-biphenylcarboxamide] | > 20 | – | not affected | little or no effect | some reduction in mitochondrial function
COc1ccc(C=NNC(=O)c2ccccc2O)cc1O [Compound 892, 2-hydroxy-N′-(3-hydroxy-4-methoxybenzylidene)benzohydrazide] | – | – | – | ~ 25% | –
